The source of these data is patent US12338214B2, “Bexarotene derivatives and their use in treating cancer” (DJ THERAPEUTICS LLC, priority 2018, dated 2025).

In one experiment the test system is MV4;11 cells. The experiment is described as follows: Cell count activity in MV4;11 cells. In kind it is cell-based, human. The settings on record: 5 days, FIG. 5. As for the experimental part: (§1) NB4 cells or MV4;11 cells were grown in RPMI, 10% fetal bovine serum and plated at a density of 25,000 cells/mL in presence or absence of compound of the disclosure (dissolved in DMSO) for 5 days. Cells were counted manually on a light microscope using a hemocytometer and Trypan blue exclusion or on the Nexcelom Cellometer Auto 2000 using Cellometer Viastain AOPI staining solution (Nexcelom CS2-0106).

The subject of a further experiment is NB4 cells. Put plainly: Cell count activity in NB4 cells. Type of experiment: cell-based, human. The settings on record: 5 days, FIG. 4. As for the experimental part:
as §1

Each structure is given as a SMILES string.

Take `CC1=C(/C=C/C(C)=C/C=C/C(C)=C/C(=O)O)C(C)(C)CCC1` [ATRA, all-trans retinoic acid]: the “reduction in cell counts” value with MV4;11 cells was “dose dependent reduction in cell counts”.
As to `C=C(c1ccc(C(=O)O)cc1)c1cc2c(cc1C)C(C)(C)CCC2(C)C` [bexarotene], the “reduction in cell counts” value in the experiment with NB4 cells is on record as “dose dependent reduction in cell counts”.
